Where two headings read alike, the source gives them in different places.
Experiments:
[1] = test system: Brown Norway rats, OVA sensitised and challenged; test: Rat model of allergic asthma: late asthmatic response (Penh, whole body plethysmography); assay type: in vivo, Brown Norway rat; conditions: 1-6 hrs after OVA challenge; i.t. dosing
Description: (§1) Male, adult, Brown Norway rats were obtained from Charles River Germany at a body weight range of 250-300 g. Animals were housed in temperature controlled individually ventilated cages in groups of 4 with food and water provided ad libitum. Animals underwent acclimatisation for at least 1 week prior to experimentation. Experiments were performed in accordance with the UK Home Office guidelines for animal welfare based on the Animals (Scientific Procedures) Act of 1986 and the ARRIVE guidelines (Fig. E2).
Initially a time course study was performed, followed by a characterisation study with compound & clinical comparator. For both studies, rats were sensitised on day 0, 14 and 21 by an intraperitoneal (i.p.) injection of 4 mL/kg (1 mL/rat) of ovalbumin (OVA;100 μg/rat) in Imject™ Alum (20 mg/rat aluminium hydroxide and 20 mg/rat magnesium hydroxide) or sham sensitised (Saline [Sal] in Imject™ Alum). […]
In both studies, 30 mins post-challenge, rats were placed unrestrained in Perspex plethysmographs connected to bias flow pumps (DSI Europe Ltd), with food and water ad libitum. 55 mins post-challenge, a five mins baseline recording was taken and the average penh and area under the curve (AUC) was recorded at 10 mins intervals for a total duration of 5 hrs and was used for analysis (DSI Europe Ltd).

[2] = test system: PI3K pathway (pAkt); test: Rat model of allergic asthma: lung tissue pAkt (T308), target engagement; assay type: in vivo, Brown Norway rat; conditions: i.t. 1 hr before OVA challenge; AZD8154 0.02, 0.1, 0.3 mg/kg, budesonide 3 mg/kg; lung 2 hrs after challenge
Description: as §1
Initially a time course study was performed, followed by a characterisation study with compound & clinical comparator. […]
5 μL of supernatant (1:50 dilution) was taken for Bradford Assay which was run according to manufacturers’ instructions (BioRad, USA). […] Absorbance was measured using a spectrophotometer and total protein values interpolated to standard curve (595 nm; Spectromax, UK).
10 μg of protein from lung tissue extract were utilized in pAkt (T308); pSTAT3, pSTAT4 & STAT5a, b (Phospho-STAT Panel kit) MSD Assay plates (Meso Scale Delivery, USA) and run according to manufacturers’ instructions. Arbitrary electrochemiluminescence signals were read, the blank subtracted and values determined in each plate using a MSD S-Plex plate reader (Meso Scale Delivery, USA).

[3] = Human plasma protein binding and unbound fraction in assay media; assay type: in vitro ADME
Description: PI3K δ assay: single cell suspension was obtained from the spleen of male Sprague Dawley rat; cells were cultured in RPMI containing heat-inactivated 10% FBS, pre-treated (1 hr., 37 °C, 5% CO2) with vehicle DMSO or PI3K inhibitors, followed by stimulation with AffiniPure F(ab’)2 Fragment Goat Anti-Rat IgM, μ chain specific, Jackson Immunoresearch (112–006-075) at 5 μg/mL (EC80 determined in house; 20–22 hrs). Then, cells were washed with FACS buffer (2% FBS, […]) and stained (15 mins, 4 °C) with Fc block (1:100, 550,273, BD bioscience), LIVE/DEAD Fixable Aqua Dead Cell Stain Kit (L34957, Invitrogen, 1:300), CD45R (B220)-PeCy7 (HIS24) (25–0460-82, eBioscience, 1:100), CD3-AF647 (IF4) (201,408, Biolegend, 1:100), CD86-FITC (24F) (200,305, Biolegend, 1:50). Cells were acquired on the Flow Cytometer (BD LSRFortessa™) and analysed using FlowJo 9.9 software (TreeStar). FACS gating strategy: lymphocytes (FSC-A vs SSC-A), doublets exclusion (FSC-W vs FSC-H), live cells (Aqua-530-), B cell identification CD3- B220 + % of positive B cells for CD86. IC50 values were determined in Graph Pad through a nonlinear fit on log transform data: log inhibitor vs response, variable slope, 4 parameters. Fraction unbound in in vitro assay is calculated using the following equation: fu^′=DF·fup/1+DF-1·fup where fu’ is the fraction unbound in assay media; fup is the experimentally determined fraction unbound in undiluted human plasma; DF is the dilution factor (fold difference between protein concentration in human plasma and assay media, using an albumin concentration of 600 μM (40 g/L) for undiluted plasma) Table 2.

[4] = Lung tissue and plasma levels after intratracheal dosing (LC-MS/MS); assay type: in vivo
Description: Initially a time course study was performed, followed by a characterisation study with compound & clinical comparator. For both studies, rats were sensitised on day 0, 14 and 21 by an intraperitoneal (i.p.) injection of 4 mL/kg (1 mL/rat) of ovalbumin (OVA;100 μg/rat) in Imject™ Alum (20 mg/rat aluminium hydroxide and 20 mg/rat magnesium hydroxide) or sham sensitised (Saline [Sal] in Imject™ Alum). On day 28 rats were challenged with 1% (w/v) aerosolised OVA in isotonic saline, or sham challenged with isotonic saline (30 mins).
For the time course study, animals were terminally anaesthetized, via overdose i.p. with sodium pentobarbitone (200 mg/kg), 1–24 hrs post antigen challenge. For the compound study, animals were terminally anaesthetised, via overdose i.p. with sodium pentobarbitone (200 mg/kg), 2 or 24 hrs post antigen challenge. […]
50 μL plasma was protein precipitated by addition of 180 μL acetonitrile containing 0.2% formic acid & 50 nM internal standard. […] Plasma concentrations of AZD8154 were determined by liquid chromatography with tandem mass spectrometric detection (LC-MS/MS).
Lung pieces were weighed and homogenised in a 1 mL ringer solution using bead-beating technology (Bertin Technologies, Montigny le Bretonneux, France). […] Lung concentrations of AZD8154 were determined by LC-MS/MS. […]

[5] = test system: JAK/STAT and NF-κB pathways; test: Rat model of allergic asthma: lung pSTAT3, pSTAT5a,b and NF-κB p65, pathway specificity; assay type: in vivo, Brown Norway rat; conditions: i.t. 1 hr before OVA challenge; lung 2 hrs after challenge

fraction unbound ([3]; human plasma, fraction unbound, read-out: Human ppb (fu, %)): 0.0063
fraction unbound ([3]; human, assay media (PI3K δ assay), fraction unbound in assay media (δ assay, RPMI 10% FBS), read-out: Fu’): 0.06
Mean concentration in lung tissue and plasma versus dose ([4]; i.t. 0.02, 0.1, 0.3 mg/kg, 2 & 24 hrs post-challenge): increased with increasing dose
level in lung tissue compared to plasma ([4]; i.t., up to 24 hrs post-dosing): significantly higher in the lung tissue
SMILES: Cc1nc(Nc2cccc(N3CCCC3=O)n2)sc1-c1cc2c(c(S(C)(=O)=O)c1)C(=O)N([C@@H](C)C1CC1)C2 [AZD8154]
LAR (Penh, AUC) [1]: statistically significant dose-dependent decrease
lung tissue pAkt levels [2]: dose related suppression
JAK/STAT pathway (pSTAT3, pSTAT5a,b) in lung tissue [5]: minimal impact
NF-κB pathway (NF-κB p65) in lung nuclear extract [5]: minimal impact

Reference: paper PMC11040934, “PI3Kγδ inhibition suppresses key disease features in a rat model of asthma” (Respiratory Research, 2024)
